Where two headings read alike, the source gives them in different places.
Columns and labels:
Ramos cells = experiment: Cytotoxicity in Ramos cells; format: cell-based; conditions: Homo sapiens, read-out: Ramos Cell EC50
Description: (§1) The compounds listed in Table 4 were tested for activity against F1F0-ATPase and cytotoxicity in Ramos cells. Inhibition of ATP synthesis and hydrolysis by the F1F0-ATPase was measured as described in K. M. Johnson et al., Chemistry & Biology 2005, 12, 485-496. Cytotoxicity in Ramos cells was measured as described in K. M. Johnson et al., Chemistry & Biology 2005, 12, 485-496, or using the alamarBlue™ Assay with fluorescence detection (U.S. Pat. No. 5,501,959) as supplied and described by Invitrogen (Carlsbad, Calif.).

F1F0-ATPase = molecular target: T1, F1F0-ATPase (Bos taurus, UniProt P13621); experiment: Inhibition of ATP synthesis and hydrolysis by the F1F0-ATPase; format: biochemical
T1 construct: from tissue; host or cells: bovine sub-mitochondrial particles (SMPs)
Description: as §1

Row | SMILES | EC50 (Ramos cells; cytotoxicity in Ramos cells) | IC50 (F1F0-ATPase; read-out: ATPase IC50) | IC50 (F1F0-ATPase) | EC50 (Ramos cells; Ramos)
1 | CC(C)NC(=O)Nc1ccc(C2=NC(Cc3ccccc3Br)C(=O)Nc3ccc(Cl)cc32)cc1 (stereo not shown) [Compound 1, (Z)-1-(4-(3-(2-bromobenzyl)-7-chloro-2-oxo-2,3-dihydro-1H-benzo[e][1,4]diazepin-5-yl)phenyl)-3-isopropylurea] | < 5 µM | 5 to 10 µM |  | 
2 | CC(C)NC(=O)Nc1ccc(C2=NC(Cc3ccccc3C(F)(F)F)C(=O)Nc3ccc(Cl)cc32)cc1 (stereo not shown) [Compound 2, (Z)-1-(4-(7-chloro-2-oxo-3-(2-(trifluoromethyl)benzyl)-2,3-dihydro-1H-benzo[e][1,4]diazepin-5-yl)phenyl)-3-isopropylurea] | < 5 µM | 5 to 10 µM |  | 
3 | CC(C)NC(=O)Nc1ccc(C2=NC(Cc3ccccc3F)C(=O)Nc3ccc(Cl)cc32)cc1 (stereo not shown) [Compound 3, (Z)-1-(4-(7-chloro-3-(2-fluorobenzyl)-2-oxo-2,3-dihydro-1H-benzo[e][1,4]diazepin-5-yl)phenyl)-3-isopropylurea] | 5 to 10 µM | 5 to 10 µM |  | 
4 | CC(C)NC(=O)Nc1ccc(C2=NC(Cc3ccccc3Cl)C(=O)Nc3ccc(Cl)cc32)cc1 (stereo not shown) [Compound 4, (Z)-1-(4-(7-chloro-3-(2-chlorobenzyl)-2-oxo-2,3-dihydro-1H-benzo[e][1,4]diazepin-5-yl)phenyl)-3-isopropylurea] | < 5 µM | 5 to 10 µM |  | 
5 | CNC(=O)Nc1ccc(C2=NC(Cc3ccccc3Cl)C(=O)Nc3ccc(Cl)cc32)cc1 (stereo not shown) [Compound 5, (Z)-1-(4-(7-chloro-3-(2-chlorobenzyl)-2-oxo-2,3-dihydro-1H-benzo[e][1,4]diazepin-5-yl)phenyl)-3-methylurea] | 5 to 10 µM |  | 5 to 10 µM | 
6 | CN(C)CCNC(=O)Nc1ccc(C2=NC(Cc3ccccc3Cl)C(=O)Nc3ccc(Cl)cc32)cc1 (stereo not shown) [Compound 6, (Z)-1-(4-(7-chloro-3-(2-chlorobenzyl)-2-oxo-2,3-dihydro-1H-benzo[e][1,4]diazepin-5-yl)phenyl)-3-(2-(dimethylamino)ethyl)urea] | < 5 µM | > 10 µM |  | 
7 | O=C(NCC(F)(F)F)Nc1ccc(C2=NC(Cc3ccccc3Cl)C(=O)Nc3ccc(Cl)cc32)cc1 (stereo not shown) [Compound 7, (Z)-1-(4-(7-chloro-3-(2-chlorobenzyl)-2-oxo-2,3-dihydro-1H-benzo[e][1,4]diazepin-5-yl)phenyl)-3-(2,2,2-trifluoroethyl)urea] | < 5 µM | < 5 µM |  | 
8 | O=C(Nc1ccc(C2=NC(Cc3ccccc3Cl)C(=O)Nc3ccc(Cl)cc32)cc1)NC1CC1 (stereo not shown) [Compound 8, (Z)-1-(4-(7-chloro-3-(2-chlorobenzyl)-2-oxo-2,3-dihydro-1H-benzo[e][1,4]diazepin-5-yl)phenyl)-3-cyclopropylurea] | < 5 µM | 5 to 10 µM |  | 
9 | COCCNC(=O)Nc1ccc(C2=NC(Cc3ccccc3Cl)C(=O)Nc3ccc(Cl)cc32)cc1 (stereo not shown) [Compound 9, (Z)-1-(4-(7-chloro-3-(2-chlorobenzyl)-2-oxo-2,3-dihydro-1H-benzo[e][1,4]diazepin-5-yl)phenyl)-3-(2-methoxyethyl)urea] | < 5 µM | 5 to 10 µM |  | 
10 | CCOCCNC(=O)Nc1ccc(C2=NC(Cc3ccccc3Cl)C(=O)Nc3ccc(Cl)cc32)cc1 (stereo not shown) [Compound 10, (Z)-1-(4-(7-chloro-3-(2-chlorobenzyl)-2-oxo-2,3-dihydro-1H-benzo[e][1,4]diazepin-5-yl)phenyl)-3-(2-ethoxyethyl)urea] | < 5 µM | 5 to 10 µM |  | 
11 | CNC(=O)Nc1ccc(C2=NC(Cc3ccccc3Br)C(=O)Nc3ccc(Cl)cc32)cc1 (stereo not shown) [Compound 11, (Z)-1-(4-(3-(2-bromobenzyl)-7-chloro-2-oxo-2,3-dihydro-1H-benzo[e][1,4]diazepin-5-yl)phenyl)-3-methylurea] | < 5 µM |  | 5 to 10 µM | 
12 | CN(C)CCNC(=O)Nc1ccc(C2=NC(Cc3ccccc3Br)C(=O)Nc3ccc(Cl)cc32)cc1 (stereo not shown) [Compound 12, (Z)-1-(4-(3-(2-bromobenzyl)-7-chloro-2-oxo-2,3-dihydro-1H-benzo[e][1,4]diazepin-5-yl)phenyl)-3-(2-(dimethylamino)ethyl)urea] | < 5 µM | 5 to 10 µM |  | 
13 | O=C(NCC(F)(F)F)Nc1ccc(C2=NC(Cc3ccccc3Br)C(=O)Nc3ccc(Cl)cc32)cc1 (stereo not shown) [Compound 13, (Z)-1-(4-(3-(2-bromobenzyl)-7-chloro-2-oxo-2,3-dihydro-1H-benzo[e][1,4]diazepin-5-yl)phenyl)-3-(2,2,2-trifluoroethyl)urea] | < 5 µM | < 5 µM |  | 
14 | O=C(Nc1ccc(C2=NC(Cc3ccccc3Br)C(=O)Nc3ccc(Cl)cc32)cc1)NC1CC1 (stereo not shown) [Compound 14, (Z)-1-(4-(3-(2-bromobenzyl)-7-chloro-2-oxo-2,3-dihydro-1H-benzo[e][1,4]diazepin-5-yl)phenyl)-3-cyclopropylurea] | < 5 µM | 5 to 10 µM |  | 
15 | COCCNC(=O)Nc1ccc(C2=NC(Cc3ccccc3Br)C(=O)Nc3ccc(Cl)cc32)cc1 (stereo not shown) [Compound 15, (Z)-1-(4-(3-(2-bromobenzyl)-7-chloro-2-oxo-2,3-dihydro-1H-benzo[e][1,4]diazepin-5-yl)phenyl)-3-(2-methoxyethyl)urea] | < 5 µM | 5 to 10 µM |  | 
16 | CCOCCNC(=O)Nc1ccc(C2=NC(Cc3ccccc3Br)C(=O)Nc3ccc(Cl)cc32)cc1 (stereo not shown) [Compound 16, (Z)-1-(4-(3-(2-bromobenzyl)-7-chloro-2-oxo-2,3-dihydro-1H-benzo[e][1,4]diazepin-5-yl)phenyl)-3-(2-ethoxyethyl)urea] | < 5 µM | 5 to 10 µM |  | 

Row | SMILES | EC50 (Ramos cells; cytotoxicity in Ramos cells) | IC50 (F1F0-ATPase; read-out: ATPase IC50) | IC50 (F1F0-ATPase) | EC50 (Ramos cells; Ramos)
17 | Cc1ccccc1CC1N=C(c2ccc(O)cc2)c2cc(Cl)ccc2NC1=O (stereo not shown) [Compound 17, (Z)-7-chloro-5-(4-hydroxyphenyl)-3-(2-methylbenzyl)-1H-benzo[e][1,4]diazepin-2(3H)-one] |  |  | 5 to 10 µM | 5 to 10 µM
18 | Cc1ccccc1CC1N=C(c2ccc(O)cc2)c2cc(Cl)ccc2N(C)C1=O (stereo not shown) [Compound 18, (Z)-7-chloro-5-(4-hydroxyphenyl)-1-methyl-3-(2-methylbenzyl)-1H-benzo[e][1,4]diazepin-2(3H)-one] | > 10 µM |  | > 10 µM | 
19 | Cc1cccc(CC2N=C(c3ccc(O)cc3)c3cc(Cl)ccc3NC2=O)c1 (stereo not shown) [Compound 19, (Z)-7-chloro-5-(4-hydroxyphenyl)-3-(3-methylbenzyl)-1H-benzo[e][1,4]diazepin-2(3H)-one] |  |  | 5 to 10 µM | 5 to 10 µM
20 | Cc1cccc(CC2N=C(c3ccc(O)cc3)c3cc(Cl)ccc3N(C)C2=O)c1 (stereo not shown) [Compound 20, (Z)-7-chloro-5-(4-hydroxyphenyl)-1-methyl-3-(3-methylbenzyl)-1H-benzo[e][1,4]diazepin-2(3H)-one] | > 10 µM |  | > 10 µM | 
21 | Cc1ccc(CC2N=C(c3ccc(O)cc3)c3cc(Cl)ccc3NC2=O)cc1 (stereo not shown) [Compound 21, (Z)-7-chloro-5-(4-hydroxyphenyl)-3-(4-methylbenzyl)-1H-benzo[e][1,4]diazepin-2(3H)-one] |  |  | 5 to 10 µM | 5 to 10 µM
22 | Cc1ccc(CC2N=C(c3ccc(O)cc3)c3cc(Cl)ccc3N(C)C2=O)cc1 (stereo not shown) [Compound 22, (Z)-7-chloro-5-(4-hydroxyphenyl)-1-methyl-3-(4-methylbenzyl)-1H-benzo[e][1,4]diazepin-2(3H)-one] | > 10 µM |  | > 10 µM | 
23 | CCc1ccccc1CC1N=C(c2ccc(O)cc2)c2cc(Cl)ccc2NC1=O (stereo not shown) [Compound 23, (Z)-7-chloro-3-(2-ethylbenzyl)-5-(4-hydroxyphenyl)-1H-benzo[e][1,4]diazepin-2(3H)-one] | 5 to 10 µM |  | 5 to 10 µM | 
24 | CCc1ccccc1CC1N=C(c2ccc(O)cc2)c2cc(Cl)ccc2N(C)C1=O (stereo not shown) [Compound 24, (Z)-7-chloro-3-(2-ethylbenzyl)-5-(4-hydroxyphenyl)-1-methyl-1H-benzo[e][1,4]diazepin-2(3H)-one] | > 10 µM |  | 5 to 10 µM | 
25 | CCc1cccc(CC2N=C(c3ccc(O)cc3)c3cc(Cl)ccc3NC2=O)c1 (stereo not shown) [Compound 25, (Z)-7-chloro-3-(3-ethylbenzyl)-5-(4-hydroxyphenyl)-1H-benzo[e][1,4]diazepin-2(3H)-one] | 5 to 10 µM |  | 5 to 10 µM | 
26 | CCc1cccc(CC2N=C(c3ccc(O)cc3)c3cc(Cl)ccc3N(C)C2=O)c1 (stereo not shown) [Compound 26, (Z)-7-chloro-3-(3-ethylbenzyl)-5-(4-hydroxyphenyl)-1-methyl-1H-benzo[e][1,4]diazepin-2(3H)-one] | 5 to 10 µM |  | 5 to 10 µM | 
27 | CCc1ccc(CC2N=C(c3ccc(O)cc3)c3cc(Cl)ccc3N(C)C2=O)cc1 (stereo not shown) [Compound 27, (Z)-7-chloro-3-(4-ethylbenzyl)-5-(4-hydroxyphenyl)-1-methyl-1H-benzo[e][1,4]diazepin-2(3H)-one] | 5 to 10 µM |  | 5 to 10 µM | 
28 | CCc1ccc(CC2N=C(c3ccc(O)cc3)c3cc(Cl)ccc3NC2=O)cc1 (stereo not shown) [Compound 28, (Z)-7-chloro-3-(4-ethylbenzyl)-5-(4-hydroxyphenyl)-1H-benzo[e][1,4]diazepin-2(3H)-one] | 5 to 10 µM |  | 5 to 10 µM | 
29 | CC(C)c1cccc(CC2N=C(c3ccc(O)cc3)c3cc(Cl)ccc3N(C)C2=O)c1 (stereo not shown) [Compound 29, (Z)-7-chloro-5-(4-hydroxyphenyl)-3-(3-isopropylbenzyl)-1-methyl-1H-benzo[e][1,4]diazepin-2(3H)-one] | 5 to 10 µM |  | 5 to 10 µM | 
30 | CC(C)c1ccc(CC2N=C(c3ccc(O)cc3)c3cc(Cl)ccc3NC2=O)cc1 (stereo not shown) [Compound 30, (Z)-7-chloro-5-(4-hydroxyphenyl)-3-(4-isopropylbenzyl)-1H-benzo[e][1,4]diazepin-2(3H)-one] | 5 to 10 µM |  | 5 to 10 µM | 
31 | CN1C(=O)C(Cc2ccccc2Br)N=C(c2ccc3[nH]c(=O)[nH]c3c2)c2cc(Cl)ccc21 (stereo not shown) [Compound 35, (Z)-3-(2-bromobenzyl)-7-chloro-1-methyl-5-(2-oxo-2,3-dihydro-1H-benzo[d]imidazol-5-yl)-1H-benzo[e][1,4]diazepin-2(3H)-one] |  |  |  | 5 to 10 µM
